Patent US9145392B2, “Imidazole amines as modulators of kinase activity” (Merck Patent GmbH, priority 2011, dated 2015)

Experiments:
His-AKT (Full Length) = His-AKT (Full Length) (Homo sapiens (Human), UniProt P31749); experiment: AKT enzyme assay; type: biochemical; conditions: read-out: IC50 AKT
P70S6K (T412E mutant) = P70S6K (T412E mutant) (Homo sapiens (Human), UniProt P23443, T412E); experiment: P70S6K enzyme assay; type: biochemical; conditions: read-out: IC50 p70S6K
Outline: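 Read-out is the substrate/phosphopeptide ratio from mobility-shift electrophoresis on a LabChip 3000.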

Chain of His-AKT (Full Length) (P31749 whole entry): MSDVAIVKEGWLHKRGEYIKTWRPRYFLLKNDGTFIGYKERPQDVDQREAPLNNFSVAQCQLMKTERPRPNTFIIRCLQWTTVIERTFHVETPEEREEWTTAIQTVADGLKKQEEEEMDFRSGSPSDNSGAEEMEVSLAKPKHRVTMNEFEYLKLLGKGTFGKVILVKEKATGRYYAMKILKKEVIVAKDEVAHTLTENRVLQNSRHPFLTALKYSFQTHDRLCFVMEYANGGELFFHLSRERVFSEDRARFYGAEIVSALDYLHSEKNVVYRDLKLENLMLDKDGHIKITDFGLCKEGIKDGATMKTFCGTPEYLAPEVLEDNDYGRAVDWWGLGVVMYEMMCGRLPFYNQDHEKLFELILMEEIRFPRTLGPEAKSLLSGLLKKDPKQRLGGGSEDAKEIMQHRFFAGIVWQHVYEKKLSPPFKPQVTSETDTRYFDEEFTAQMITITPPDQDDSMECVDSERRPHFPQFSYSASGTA
Chain of P70S6K (T412E mutant) (P23443 whole entry T412E): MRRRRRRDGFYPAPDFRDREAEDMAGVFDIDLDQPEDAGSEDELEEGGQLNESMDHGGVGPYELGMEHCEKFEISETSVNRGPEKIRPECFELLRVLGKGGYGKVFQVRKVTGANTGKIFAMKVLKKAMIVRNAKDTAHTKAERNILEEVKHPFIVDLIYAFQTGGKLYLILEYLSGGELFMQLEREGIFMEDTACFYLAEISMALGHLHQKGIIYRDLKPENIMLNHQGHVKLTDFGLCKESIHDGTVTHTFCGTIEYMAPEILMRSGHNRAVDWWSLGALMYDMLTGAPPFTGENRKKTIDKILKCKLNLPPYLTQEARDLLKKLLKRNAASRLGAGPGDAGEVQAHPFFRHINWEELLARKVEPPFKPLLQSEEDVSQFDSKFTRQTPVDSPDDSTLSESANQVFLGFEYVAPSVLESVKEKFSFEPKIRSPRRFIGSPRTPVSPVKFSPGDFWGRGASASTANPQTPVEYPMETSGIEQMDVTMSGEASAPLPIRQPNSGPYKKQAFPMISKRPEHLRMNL

Row | IC50 (His-AKT (Full Length)) [nM] | IC50 (P70S6K (T412E mutant)) [nM] | Compound
1 | 4.2 | 1.9 | CCc1c(N)ncnc1N1CCC(c2nc(-c3ccnc(C(C)C)c3)cn2CCN2CCC2)CC1 [Compound 179, 6-(4-(1-(2-(azetidin-1-yl)ethyl)-4-(2-isopropylpyridin-4-yl)-1H-imidazol-2-yl)piperidin-1-yl)-5-ethylpyrimidin-4-amine]
2 | 2.4 | 1.1 | CC(C)c1cc(-c2cn(CCN3CCC3)c(C3CCN(c4ncnc(N)c4Cl)CC3)n2)ccn1 [Compound 180, 6-(4-(1-(2-(azetidin-1-yl)ethyl)-4-(2-isopropylpyridin-4-yl)-1H-imidazol-2-yl)piperidin-1-yl)-5-chloropyrimidin-4-amine]
3 | 0.15 | 0.11 | CC(C)c1cc(-c2cn(CCN3CCC3)c(C3CCN(c4ncnc(N)c4Br)CC3)n2)ccn1 [Compound 181, 6-(4-(1-(2-(azetidin-1-yl)ethyl)-4-(2-isopropylpyridin-4-yl)-1H-imidazol-2-yl)piperidin-1-yl)-5-bromopyrimidin-4-amine]
4 | 2.2 | 0.7 | C=Cc1c(N)ncnc1N1CCC(c2nc(-c3ccnc(C(C)C)c3)cn2CCN2CCC2)CC1 [Compound 182, 6-(4-(1-(2-(azetidin-1-yl)ethyl)-4-(2-isopropylpyridin-4-yl)-1H-imidazol-2-yl)piperidin-1-yl)-5-vinylpyrimidin-4-amine]
5 | 74 | 12 | C=Cc1c(N)ncnc1N1CCC(c2nc(-c3ccc(F)c(C(F)(F)F)c3)cn2CC2CNC2)CC1 [Compound 183, 6-(4-(1-(azetidin-3-ylmethyl)-4-(4-fluoro-3-(trifluoromethyl)phenyl)-1H-imidazol-2-yl)piperidin-1-yl)-5-vinylpyrimidin-4-amine]
6 | 2.3 | 0.26 | COc1c(N)ncnc1N1CCC(c2nc(-c3ccc(F)c(C)c3)cn2CC2CNC2)CC1 [Compound 184, 6-(4-(1-(azetidin-3-ylmethyl)-4-(4-fluoro-3-methylphenyl)-1H-imidazol-2-yl)piperidin-1-yl)-5-methoxypyrimidin-4-amine]
7 | 6.6 | 2.2 | CCOc1c(N)ncnc1N1CCC(c2nc(-c3ccc(F)c(C)c3)cn2CC2CNC2)CC1 [Compound 185, 6-(4-(1-(azetidin-3-ylmethyl)-4-(4-fluoro-3-methylphenyl)-1H-imidazol-2-yl)piperidin-1-yl)-5-ethoxypyrimidin-4-amine]
8 | 7.1 | 2 | Cc1cc(-c2cn(CC3CNC3)c(C3CCN(c4ncnc(N)c4OCC(F)(F)F)CC3)n2)ccc1F [Compound 186, 6-(4-(1-(azetidin-3-ylmethyl)-4-(4-fluoro-3-methylphenyl)-1H-imidazol-2-yl)piperidin-1-yl)-5-(2,2,2-trifluoroethoxy)pyrimidin-4-amine]
9 | 6.4 | 3.4 | Cc1cc(-c2cn(CC3CNC3)c(C3CCN(c4ncnc(N)c4OC(C)C)CC3)n2)ccc1F [Compound 187, 6-(4-(1-(azetidin-3-ylmethyl)-4-(4-fluoro-3-methylphenyl)-1H-imidazol-2-yl)piperidin-1-yl)-5-isopropoxypyrimidin-4-amine]
10 | 2.3 | 2.1 | CCc1c(N)ncnc1N1CCC(c2nc(-c3ccc(F)c(C)c3)cn2CC2CNC2)CC1 [Compound 188, 6-(4-(1-(azetidin-3-ylmethyl)-4-(4-fluoro-3-methylphenyl)-1H-imidazol-2-yl)piperidin-1-yl)-5-ethylpyrimidin-4-amine]
11 | 4.5 | 1.1 | Cc1cc(-c2cn(CC3CNC3)c(C3CCN(c4ncnc(N)c4C(C)C)CC3)n2)ccc1F [Compound 189, 6-(4-(1-(azetidin-3-ylmethyl)-4-(4-fluoro-3-methylphenyl)-1H-imidazol-2-yl)piperidin-1-yl)-5-isopropylpyrimidin-4-amine]
12 | 15 | 7.4 | Cc1cc(-c2cn(CC3CNC3)c(C3CCN(c4ncnc(N)c4C#N)CC3)n2)ccc1F [Compound 191, 4-amino-6-(4-(1-(azetidin-3-ylmethyl)-4-(4-fluoro-3-methylphenyl)-1H-imidazol-2-yl)piperidin-1-yl)pyrimidine-5-carbonitrile]
13 | 7200 | 2700 | CNc1ncnc(N2CCC(c3nc(-c4ccnc(C(F)(F)F)c4)cn3CCN3CCC3)CC2)c1Cl [Compound 192, 6-(4-(1-(2-(azetidin-1-yl)ethyl)-4-(2-(trifluoromethyl)pyridin-4-yl)-1H-imidazol-2-yl)piperidin-1-yl)-5-chloro-N-methylpyrimidin-4-amine]
14 | 5700 | 1300 | CNc1ncnc(N2CCC(c3nc(-c4ccc(F)c(C)c4)cn3CC3CNC3)CC2)c1Cl [Compound 193, (6-{4-[1-Azetidin-3-ylmethyl-4-(4-fluoro-3-methyl-phenyl)-1H-imidazol-2-yl]-piperidin-1-yl}-5-chloro-pyrimidin-4-yl)-methyl-amine]

The next lines start with the molecule.

Row | Compound | IC50 (His-AKT (Full Length)) [nM] | IC50 (P70S6K (T412E mutant)) [nM]
15 | Cc1cc(-c2cn(CCN(C)C)c(C3CCN(c4ncnc(N)c4-c4cn[nH]c4)CC3)n2)ccc1F [Compound 163, 6-(4-(1-(2-(dimethylamino)ethyl)-4-(4-fluoro-3-methylphenyl)-1H-imidazol-2-yl)piperidin-1-yl)-5-(1H-pyrazol-4-yl)pyrimidin-4-amine] | 4.8 | 0.73
16 | Cc1cc(-c2cn(CCN3CCC3)c(C3CCN(c4ncnc(N)c4-c4cn[nH]c4)CC3)n2)ccc1F [Compound 164, 6-(4-(1-(2-(azetidin-1-yl)ethyl)-4-(4-fluoro-3-methylphenyl)-1H-imidazol-2-yl)piperidin-1-yl)-5-(1H-pyrazol-4-yl)pyrimidin-4-amine] | 5.5 | 4.4
17 | Cc1cc(-c2cn(CCNC(C)(C)C)c(C3CCN(c4ncnc(N)c4-c4cn[nH]c4)CC3)n2)ccc1F [Compound 165, 6-(4-(1-(2-(tert-butylamino)ethyl)-4-(4-fluoro-3-methylphenyl)-1H-imidazol-2-yl)piperidin-1-yl)-5-(1H-pyrazol-4-yl)pyrimidin-4-amine] | 5.5 | 2.8
18 | CNCCn1cc(-c2ccnc(C(F)(F)F)c2)nc1C1CCN(c2ncnc(N)c2Br)CC1 [Compound 166, 5-bromo-6-(4-(1-(2-(methylamino)ethyl)-4-(2-(trifluoromethyl)pyridin-4-yl)-1H-imidazol-2-yl)piperidin-1-yl)pyrimidin-4-amine] | 1.5 | 1.3
19 | CNCCn1cc(-c2ccnc(C(F)(F)F)c2)nc1C1CCN(c2cc(N)ncn2)CC1 [Compound 167, 6-(4-(1-(2-(methylamino)ethyl)-4-(2-(trifluoromethyl)pyridin-4-yl)-1H-imidazol-2-yl)piperidin-1-yl)pyrimidin-4-amine] | > 1000 | 130
20 | Nc1ncnc(N2CCC(c3nc(-c4ccnc(C(F)(F)F)c4)cn3CCN3CCC3)CC2)c1-c1cnoc1 [Compound 168, 6-(4-(1-(2-(azetidin-1-yl)ethyl)-4-(2-(trifluoromethyl)pyridin-4-yl)-1H-imidazol-2-yl)piperidin-1-yl)-5-(isoxazol-4-yl)pyrimidin-4-amine] | 2.7 | 2.9
21 | CNCCn1cc(-c2ccnc(C(F)(F)F)c2)nc1C1CCN(c2ncnc(N)c2C#N)CC1 [Compound 169, 4-amino-6-(4-(1-(2-(methylamino)ethyl)-4-(2-(trifluoromethyl)pyridin-4-yl)-1H-imidazol-2-yl)piperidin-1-yl)pyrimidine-5-carbonitrile] | 1.7 | 1.3
22 | CNCCn1cc(-c2ccnc(C(F)(F)F)c2)nc1C1CCN(c2ncnc(N)c2C2C=NOC2)CC1 (centres unmarked) [Compound 170, 5-(4,5-dihydroisoxazol-4-yl)-6-(4-(1-(2-(methylamino)ethyl)-4-(2-(trifluoromethyl)pyridin-4-yl)-1H-imidazol-2-yl)piperidin-1-yl)pyrimidin-4-amine] | 120 | 170
23 | CNCCn1cc(-c2ccnc(C(F)(F)F)c2)nc1C1CCN(c2ncnc(N)c2Cl)CC1 [Compound 172, 5-chloro-6-(4-(1-(2-(methylamino)ethyl)-4-(2-(trifluoromethyl)pyridin-4-yl)-1H-imidazol-2-yl)piperidin-1-yl)pyrimidin-4-amine] | 1.4 | 2
24 | Nc1ncnc(N2CCC(c3nc(-c4ccnc(C(F)(F)F)c4)cn3CCNC3CC3)CC2)c1Cl [Compound 173, 5-chloro-6-(4-(1-(2-(cyclopropylamino)ethyl)-4-(2-(trifluoromethyl)pyridin-4-yl)-1H-imidazol-2-yl)piperidin-1-yl)pyrimidin-4-amine] | 3.6 | 2.8
25 | CCNCCn1cc(-c2ccc(F)c(C(F)(F)F)c2)nc1C1CCN(c2ncnc(N)c2OC(C)C)CC1 [Compound 174, 6-(4-(1-(2-(ethylamino)ethyl)-4-(4-fluoro-3-(trifluoromethyl)phenyl)-1H-imidazol-2-yl)piperidin-1-yl)-5-isopropoxypyrimidin-4-amine] | 0.52 | 0.44
26 | CC(C)Oc1c(N)ncnc1N1CCC(c2nc(-c3ccc(F)c(C(F)(F)F)c3)cn2CC2CNC2)CC1 [Compound 175, 6-(4-(1-(azetidin-3-ylmethyl)-4-(4-fluoro-3-(trifluoromethyl)phenyl)-1H-imidazol-2-yl)piperidin-1-yl)-5-isopropoxypyrimidin-4-amine] | 4.5 | 5.9
27 | CCOc1c(N)ncnc1N1CCC(c2nc(-c3ccc(F)c(C(F)(F)F)c3)cn2CC2CNC2)CC1 [Compound 176, 6-(4-(1-(azetidin-3-ylmethyl)-4-(4-fluoro-3-(trifluoromethyl)phenyl)-1H-imidazol-2-yl)piperidin-1-yl)-5-ethoxypyrimidin-4-amine] | 5 | 5.5
28 | Cc1cc(-c2cn(CCN3CCC3)c(C3CCN(c4ncnc(N)c4OC(C)C)CC3)n2)ccc1F [Compound 178, 6-(4-(1-(2-(azetidin-1-yl)ethyl)-4-(4-fluoro-3-methylphenyl)-1H-imidazol-2-yl)piperidin-1-yl)-5-isopropoxypyrimidin-4-amine] | 2.7 | 3.9
